One assay relates to wild-type tobacco plants. In words: spray test, herbicidal damage scoring. As to conditions: Table 4.1, 7 days after treatment, 100=complete death, 0=no damage, one value per plant/event. Format: in vivo. On the procedure:
(§1) Once rooted, plantlets are transferred from agar and potted into 50% peat, 50% John Innes Soil No. 3 or, for example, MetroMix® 380 soil (Sun Gro Horticulture, Bellevue, WA) with slow-release fertilizer in 3 inch round or 4 inch square pots and left regularly watered to establish for 8-12d in the glass house. Glass house conditions are about 24-27° C. day; 18-21° C. night and approximately a 14h (or longer in UK summer) photoperiod.
(§2) About 20-30 TO events are produced for a number of HPPD variant genes.
(§3) Tables 4.1-4.9 show the herbicidal damage scoring on transgenic tobacco plants 7 days after treatment. A score of 100=complete death and 0=no damage observed.

For assay [1], the system named is transgenic tobacco plants expressing mutant HPPD SEQ ID NO: 14. In words: spray test, herbicidal damage scoring. Format: in vivo. As to conditions: for tolerance compared to SEQ ID 122 expressing plants: SEQ ID 14 plants, 800 g/ha Mesotrione, 400 g/ha Tembotrione or 400 g/ha Isoxaflutole (Table 3.2). As to the method:
Avena sativa HPPD or orthologues and variants thereof, for example SEQ IDs 1-63 and 122-127, were expressed in transgenic tobacco. DNA sequences that encode these polypeptides (optimized for tobacco or, optionally, codon optimized according to a target crop such as soybean) were prepared synthetically. Each sequence was designed to include a 5′ fusion with TMV omega 5′ leader sequence such that they are flanked at the 5′ end with XhoI and at the 3′ end with KpnI to facilitate direct cloning into a suitable binary vector for Agrobacterium-based plant transformation.
In one example, the TMV omega 5′ leader and a HPPD encoding gene of interest is excised using XhoI/KpnI and cloned into similarly digested binary vector pBIN 19 (Bevan, Nucl. Acids Res. (1984) behind a double enhanced 35S promoter ahead of a NOS 3′ transcription terminator and then transformed into E. coli DH5 alpha competent cells. DNA recovered from the E. coli is used to transform Agrobacterium tumefaciens LBA4404, and transformed bacteria are selected on media contain rifampicin and kanamycin. Tobacco tissue is subjected to Agrobacterium-mediated transformation using methods well described in the art or as described herein. For example, a master plate of Agrobacterium tumefaciens containing the HPPD expressing the binary vector is used to inoculate 10 ml LB (L broth) containing 100 mg/l Rifampicin plus 50 mg/l Kanamycin using a single bacterial colony. This is incubated overnight at 28° C. shaking at 200 rpm. This entire overnight culture is used to inoculate a 50 ml volume of LB containing the same antibiotics. Again this is cultured overnight at 28° C. shaking at 200 rpm. The Agrobacterium cells are pelleted by centrifuging at 3000 rpm for 15 minutes and then resuspended in MS (Murashige and Skoog) medium containing 30 g/l sucrose, pH 5.9 to an OD […]=0.6. This suspension is dispensed in 25 ml aliquots into petri dishes.
Once rooted, plantlets are transferred from agar and potted into 50% peat, 50% John Innes Soil No. 3 or, for example, MetroMix® 380 soil (Sun Gro Horticulture, Bellevue, WA) with slow-release fertilizer in 3 inch round or 4 inch square pots and left regularly watered to establish for 8-12d in the glass house. Glass house conditions are about 24-27° C. day; 18-21° C. night and approximately a 14h (or longer in UK summer) photoperiod. Humidity is adjusted to ˜65% and light levels used are up to 2000 umol/m^2 at bench level. Once new tissue emerged and plants reach the 2-4 leaf stage, some of the clones from each event are sprayed with an HPPD inhibitor of interest selected from the herbicides listed in reference to Example 1. […] For example Callisto® is mixed in water with 0.2-0.25% X-77 surfactant and sprayed from a boom on a suitable track sprayer moving at 2 mph in a DeVries spray chamber (Hollandale, MN) with the nozzle about 2 inches from the plant tops.
Plants are assessed for damage and scored at, for example, 7 and 14 days after treatment (DAT). About 20-30 TO events are produced for a number of HPPD variant genes.
Plants of events showing the least damage are grown to flowering, then bagged and allowed to self. […] Single copy events amongst the Ti plant lines are identified by their 3:1 segregation ratio (with respect to kanamycin and/or herbicide) and by quantitative RT-PCR. Seed from the thus selected Ti tobacco (var. Samsun) lines are sown in 3 inch diameter pots containing 50% peat and 50% John Innes Soil No. 3. After growth to the 3 leaf stage, plants are sprayed as described above in order to test for herbicide tolerance relative to like-treated non-transgenic tobacco plants, and also in comparison with like-treated Ti plants expressing the base HPPD SEQ IDs 122-125. HPPD expression levels were monitored by Western analysis. […]

Assay [2] concerns HPPD variant APESV V200 (SEQ ID NO: 6). Put plainly: coupled HGO assay. Format: biochemical, Apera spica-venti. As to the method:
(§4) DNA sequences (SEQ ID NOs: 65-118, 128, 130, 131, and 133), synthesized for expression in E. coli, by GeneWiz (USA) to encode HPPD variants (SEQ ID NOs: 5-58, 122, 124, 125 and 127) derived from either Avena sativa (SEQ ID NOs: 122, 124), Alopecurus myosuroides (SEQ ID NO: 126) or Apera spica-venti (SEQ ID NOs: 123, 125) were transformed into E coli BL21 (DE3) (New England Biolabs) and grown in 0.5 ml Terrific broth +50 ug/ml Kanamycin media in a 96-deepwell block overnight (37° C., 900rpm). 25 ul of the overnight cultures were inoculated into fresh 96-deepwell block containing 1 ml Formedium Autoinduction Media (AIM). The AIM cultures were grown for 3h at 37° C. (900rpm) and then transferred to 20° C. overnight (900rpm) to allow protein expression. The overnight cultures were centrifuged and 500 ul of Cellytic B (Sigma Aldrich) was added to resuspend the cell pellets. The coupled HGO assay (Siehl et al, 2014) is used to generate IC50 values for the HPPD variants of interest.
(§5) E. coli BL21 (DE3) cells were transformed with a pET24a vector containing a C-terminally his-tagged Arabidopsis HGO gene, grown and induced overnight as described for the HPPD variants above. The cell pellet was resuspended in phosphate buffered saline at pH 7.4 containing 10% Glycerol, 1mm Tris[2-carboxyethyl] phosphine-HCl (TCEP) plus 30 mM Imidazole and lysed using lysozyme/benzonase. The extract was clarified by low speed centrifugation and purified in the same buffer down a 1 ml His Gravitrap column. The bound HGO was eluted in 0.25M imidazole and the fractions pooled and beaded into liquid nitrogen. All procedures apart from the centrifugation and beading steps were carried out under a nitrogen atmosphere.
(§6) The coupled HGO assay is carried out by adding 10 ul of HPPD extract to a 96-well plate and then adding 40 ul of reaction buffer (50 mM Bis Tris Propane, pH7.0, 25 mM sodium-L-ascorbate, 400μM mercaptoethanol, 50 μM Fe(II)SO4). The plates are left to incubate for 5 minutes on ice. […] 200 ul of HPP/HGO (197 μM hydroxyphenylpyruvic acid, 16 μl/ml Homogentisic Acid Oxidase in reaction buffer as described above) buffer is then added to the well and the reaction is regularly monitored (e.g. every 30 seconds-5 minutes) for absorbance at 330 nm for a given time period (e.g., for between 15-60 minutes). The data can then be used to calculate the IC50 value for each HPPD variant of interest.

The test system of assay [3] is HPPD variant APESV V209 (SEQ ID NO: 18). Put plainly: coupled HGO assay. Format: biochemical, Apera spica-venti. As to the method: as §4, §5, §6
For assay [4], the system named is HPPD variant ALOME V162 (SEQ ID NO: 126). In words: coupled HGO assay. Format: biochemical, Alopecurus myosuroides. On the procedure: as §4, §5, §6
For assay [5], the system named is HPPD variant ALOME V200 (SEQ ID NO: 7). In words: coupled HGO assay. Format: biochemical, Alopecurus myosuroides. On the procedure:
as §4, §5, §6

Assay [6] has as its system HPPD variant ALOME V209 (SEQ ID NO: 19). Put plainly: coupled HGO assay. The assay is classed as biochemical, Alopecurus myosuroides. As to the method: as §4, §5, §6
Assay [7] concerns transgenic tobacco plants expressing mutant HPPD SEQ ID NO: 122. Put plainly: spray test, herbicidal damage scoring. The assay is classed as in vivo. As to conditions: Table 3.2; 14 days after treatment; best events, SEQ ID 122; 100=complete death, 0=no damage; one value per event.
For assay [8] the test system is unchanged. In words: spray test, herbicidal damage scoring. The assay is classed as in vivo. As to conditions: Table 4.4; 7 days after treatment; SEQ ID NO: 122; 100=complete death, 0=no damage; one value per event. As to the method:
(§7) DNA sequences that encode these polypeptides (optimized for tobacco or, optionally, codon optimized according to a target crop such as soybean) were prepared synthetically. Each sequence was designed to include a 5′ fusion with TMV omega 5′ leader sequence such that they are flanked at the 5′ end with XhoI and at the 3′ end with KpnI to facilitate direct cloning into a suitable binary vector for Agrobacterium-based plant transformation.
(§8) For example, a master plate of Agrobacterium tumefaciens containing the HPPD expressing the binary vector is used to inoculate 10 ml LB (L broth) containing 100 mg/l Rifampicin plus 50 mg/l Kanamycin using a single bacterial colony. This is incubated overnight at 28° C. shaking at 200 rpm. This entire overnight culture is used to inoculate a 50 ml volume of LB containing the same antibiotics. Again this is cultured overnight at 28° C. shaking at 200 rpm. The Agrobacterium cells are pelleted by centrifuging at 3000 rpm for 15 minutes and then resuspended in MS (Murashige and Skoog) medium containing 30 g/l sucrose, pH 5.9 to an OD […]=0.6. This suspension is dispensed in 25 ml aliquots into petri dishes.
as §1, §2
(§9) Single copy events amongst the Ti plant lines are identified by their 3:1 segregation ratio (with respect to kanamycin and/or herbicide) and by quantitative RT-PCR. Seed from the thus selected Ti tobacco (var. Samsun) lines are sown in 3 inch diameter pots containing 50% peat and 50% John Innes Soil No. 3. […] HPPD expression levels were monitored by Western analysis.
as §3

The test system of assay [9] is transgenic tobacco plants expressing mutant HPPD SEQ ID NO: 124. In words: spray test, herbicidal damage scoring. Format: in vivo. As to conditions: Table 4.2, 7 days after treatment, 100=complete death, 0=no damage, one value per event. On the procedure: as §7, §8, §1, §2, §9, §3
Assay [10] has as its system transgenic tobacco plants expressing mutant HPPD SEQ ID NO: 125. Put plainly: spray test, herbicidal damage scoring. The assay is classed as in vivo. As to conditions: Table 4.3, 7 days after treatment, 100=complete death, 0=no damage, one value per event. On the procedure: as §7, §8, §1, §2, §9, §3

“And” between values parts separate entries of the source, which are not always exact repeats. Identical values can stand only once.

For the compound `CS(=O)(=O)c1cc(C(F)(F)F)ccc1C(=O)c1cnoc1C1CC1` [Isoxaflutole, isoxaflutole], the “herbicidal damage scoring, Isoxaflutole (400 gai/ha)” value in the assay with wild-type tobacco plants was 95 and 97 and 96. The “tolerance compared to SEQ ID 122 expressing plants” value in assay [1] is “equally tolerant”.

In the case of `CS(=O)(=O)c1ccc(C(=O)C2C(=O)CCCC2=O)c([N+](=O)[O-])c1` [Mesotrione, mesotrione], the IC50 (usually the concentration needed to halve the response being measured) stood at 32.2 µM in [2]; 44.8 µM in [3]; 12.8 µM in [4]; 31.9 µM in [5]; 31.9 µM in assay [6]. Besides, in assay [1], the “tolerance compared to SEQ ID 122 expressing plants” value is recorded as “equally tolerant”.

As to `CS(=O)(=O)c1ccc(C(=O)C2C(=O)CCCC2=O)c(Cl)c1COCC(F)(F)F` [Tembotrione, tembotrione], the “herbicidal damage scoring, Tembotrione (400 gai/ha)” value is 97 and 95 and 98 in the assay with wild-type tobacco plants; 25 and 30 in [1] (Table 3.2, 14 days after treatment, best events, SEQ ID 14, 100=complete death, 0=no damage, one value per event); 45 and 50 and 55 and 65 and 40 in assay [7]. For the same compound, the “tolerance compared to SEQ ID 122 expressing plants” value in assay [1] was “increased tolerance”.

As to `Cc1c(C(=O)c2cnn(C)c2O)ccc(S(C)(=O)=O)c1C1=NOCC1` [Topramezone, topramezone], the “herbicidal damage scoring, Topramezone (100 g/ha)” value with wild-type tobacco plants is 98 and 97 and 99 and 95; in assay [8], 0; in [9], 0; in [10], 0.

For the origin of these results see patent US20240043860A1, “NOVEL HYDROXYPHENYLPYRUVATE DIOXYGENASE POLYPEPTIDES AND METHODS OF USE THEREOF” (Syngenta Crop Protection AG, priority 2020, published 2024).
